# In patent US8853188B2, “Compositions and methods for cancer treatment” (Women and Infants Hospital of RI, Inc., priority 2005, dated 2014):
# The star is where a group is joined. Cbz = O=C(OCc1ccccc1)*; CH2F = FC*
# What was measured:
# panel of cancer cells = assay: Antiproliferative and cytotoxic activity on a panel of cancer cells (MTS, 96 well plates); assay type: cell-based; conditions: parent compound used as control; data not shown
# Excerpt: A panel of cancer cells is used to evaluate the antiproliferative and cytotoxic activities of B3CD and related analogs. The cells include colon (Colo), breast (MCF-7 and MDA-MB-231), lung (A549), prostate PC3 and LNCaP), melanoma (SK-MEL-31), renal (Caki-1), ovarian (OVCAR-3), bladder (T24), pancreatic (BxPC-3), hepatocarcinoma (Hep3B), neuroblastoma (SH-SY5Y), glioblastoma (SNB-19), medulloblastoma (D283 Med), skin (LS123), squamous cell carcinoma (Scc-15), acute promyelocytic leukemia (APL), myeloblastic (HL-60) and myelomonocytic (U937).
# The anticancer activity testing will be carried out by high throughput screening. The cancer cells will be cultured in 96 well plates and treated with the library. B3CD has been tested in this system and was effective at a 200 nM dose. For general screening, 2-200 nM doses will be used. Cells will be treated with the compounds for 12, 24, 48 and 72 hours. A 96 well plate format allows testing a large number of compounds simultaneously. An MTS based colorimetric method of evaluation of proliferation will be utilized, which is widely used in cancer drug discovery. The fingerprint of profiled drugs using 60 cell-line screening program by NCl using COMPARE algorithm (Paull K D, Shoemaker R H, Hodes L, Monks A, Scudiero D A, Rubinstein L, Plowman J, Boyd M R. Display and analysis of patterns of differential activity of drugs against human tumor cell lines: development of mean graph and COMPARE algorithm. J Natl Cancer Inst 1989; 81:1088).
# (§1) Materials and methods. Proliferation was measured by MTS and BrdU incorporation assays. Apoptosis was assessed by DNA fragmentation, Cell Death Detection ELISA and caspase-3-assays. Effect of B3CD on TrkB signaling by BDNF was assessed by Western Blot analysis of AKT and ERK phosphorylation. The effect on angiogenesis was determined by chick chorioallantoic membrane (CAM) assay and aortic ring assay.
# [1] = system: VEGF induced angiogenesis; assay: Chick chorioallantoic membrane (CAM) assay; assay type: in vivo; conditions: VEGF present
# Description: as §1
# The antiproliferative effect of B3CD on endothelial cells was further investigated.
# The ability of B3CD to inhibit angiogenesis/neovascularization was tested. Preliminary studies were carried out using chick chorioallantoic membrane (CAM) assay. Calcidiol or B3CD were deposited in the presence of growth factor (VEGF) and deposited on the CAM and eggs were incubated for 3 days at 37° C. (3% CO2). The control carried the growth factor alone. VEGF induces angiogenesis which results in sprouting of capillaries from the large vessels. The compounds diffuse out and any inhibitory molecule would reduce the growth of blood vessel network.
# SK-N-SH cells [2] = assay: Cell viability by MTS assay; assay type: cell-based; conditions: 0-800 nM, 48 hours
# Description: (§2) SK-N-SH and SH-SY5Y neuroblastic cells were treated with increasing doses of calcidiol or B3CD (0, 25, 50, 100, 200, 400 and 800 nM) for 48 hours. Cell viability was assessed by MTS assay and proliferation was determined by BrdU incorporation assay.
# SK-N-SH cells [3] = assay: Proliferation by BrdU incorporation assay; assay type: cell-based; conditions: 0-800 nM, 48 hours
# Description: as §2
# caspase-3 = assay: Caspase-3 activation with specific substrate in SK-N-SH cells; assay type: cell-based
# Description: Caspases are integral to apoptosis in cells. Following the treatment of SK-N-SH cells with 250 nM B3CD, activation of caspase-3 was measured by using specific substrate.
# [4] = mouse, in vivo
# Description: FIG. 6A. In vivo studies to determine apparent systemic toxicity of B3CD. Mice were injected with the specified amounts of B3CD (i.p.) once in 48 hr for 28 days. The animals were weighed to assess the effect of B3CD on change in body weight.
# FIG. 6B. At the end of the experiment (6A) mice were sacrificed and blood collected to estimate serum calcium as a measure of hypercalcemia.
# A major concern was the potential systemic toxicity of B3CD due to hypercalcemia since B3CD (FIG. 1) is a derivative of calcidiol, which is a family member of calcitriol (Schmidt-Gayk H, Bouillon R, Roth H J. Measurement of vitamin D and its metabolites (calcidiol and calcitriol) and their clinical significance. Scand J Clin Lab Invest Suppl. 1997; 227:35-45). Therapeutic doses of calcitriol lead to increased serum calcium and consequently death; therefore, hypercalcemia is a hallmark of lethality of pharmacologic doses of calcitriol. In the event that further testing in vivo might show lethal calcemic side effects, preliminary studies were carried out to determine any overt toxic effects in a murine model.
# The effect of B3CD on serum calcium levels in SCID mice was tested. These studies were carried out in Boston University School of Medicine, Boston, Mass., in accordance with institutional guidelines. B3CD, calcidiol and calcitriol were formulated in 80% polyethylene glycol in PBS and were administered as i.p. injections once in 48 hours for 28 days. Animals were euthanized, sera collected and analyzed immediately for serum calcium in the hospital core facility. The animals were divided into 4 groups of 5 animals each.
# [5] = system: SH-SY5Y, IMR-32 and SMS-KCNR cells; conditions: cells with defects in caspase-8 activation; cited from earlier work
# IMR-32 cells = assay: Apoptosis in apoptosis-resistant NB cells; assay type: cell-based; conditions: IMR-32, pretreatment before B3CD
# Description: (§3) NB is characterized with defective apoptotic pathways. […] Neuronal (N-) type SH-SY5Y and IMR-32 cells, and stromal (S-) type SMS-KCNR cells which are resistant to apoptosis were used. […] A defect in caspase-8 or its activation causes resistance to apoptosis and in turn to chemotherapy in all these cells. On the other hand, these cells carry intact intrinsic apoptotic pathway, and executioner caspase-3 is activated by caspase-9 route.
# (§4) In depth studies were carried out to assess the activation of intrinsic and extrinsic apoptotic pathways. […] Caspase-9 was activated by B3CD in these cells (FIG. 10B), indicating an active role of intrinsic pathway of apoptosis. […] However, caspase-8 was undetectable in IMR-32 and SH-SY5Y cells.
# (§5) Although caspase-8 was detected in SMS-KCNR cells, it was not activated by B3CD (FIG. 10D). Actin immunoblotting was used as loading control in the above studies (data not shown).
# SMS-KCNR cells = assay: Apoptosis in apoptosis-resistant NB cells; assay type: cell-based; conditions: pretreatment before B3CD
# Description: as §3, §4, §5
compound,measurement,setting,value
"C=C1CC[C@H](O)C/C1=C/C=C1\CCC[C@@]2(C)C1CC[C@@H]2[C@H](C)CCCC(C)(C)O (stereo partly drawn) [calcidiol, (1 S,Z)-3-(2-((1R,7aR,E)-1-((R)-6-hydroxy-6-methylheptan-2-yl)-7a-methyloctahydro-4H-inden-4-ylidene)ethylidene)-4-methylenecyclohexan-1-ol, reference compound]","antiproliferative, cytotoxic, apoptotic activities",panel of cancer cells,"did not exhibit any antiproliferative, cytotoxic, apoptotic activities"
same,inhibition of angiogenesis / neovascularization (in words),[1],no inhibition of neovascularization
same,viability of SK-N-SH cells (in words),SK-N-SH cells [2],did not show any similar effects
same,"proliferation, BrdU incorporation",SK-N-SH cells [3],did not show inhibitory activity
same,caspase-3 activation (in words),caspase-3,did not show any significant change
"C=C1/C(=C\C=C2/CCC[C@]3(C)[C@@H]([C@H](C)CCCC(C)(C)O)CC[C@@H]23)C[C@@H](O)C[C@@H]1O [calcitriol, 1,25-dihydroxy-vitamin D3, reference compound]","clinical signs (lethargy, tolerance to handling, mobility)",[4],appeared lethargic and exhibited a decreased tolerance to handling with reduced mobility
COc1cccc2c1C(=O)c1c(O)c3c(c(O)c1C2=O)C[C@@](O)(C(=O)CO)C[C@@H]3O[C@H]1C[C@H](N)[C@H](O)[C@H](C)O1 [doxorubicin],apoptosis and activation of caspase-9 and -3,[5],undergo apoptosis and activation of caspase-9 and -3
Cbz-LEHD-CH2F [reference compound],effect of pretreatment on B3CD induced apoptosis,IMR-32 cells,effectively inhibited apoptosis
same,effect of pretreatment on B3CD induced apoptosis,SMS-KCNR cells,effectively inhibited apoptosis
